Reference: ChEMBL document CHEMBL1201862, “PubChem BioAssay data set” (2004)
Where “and” joins values, the source holds several entries; their conditions need not be identical. Equal entries are not always repeated.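 The compound was tested at five concentrations on cells cultured in 96-well plates, with a 48-hour exposure period. The concentration for 50% growth inhibition is given as GI50.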 Calls of active or inactive are those of the source. Rule as the data show it: active = GI50 up to about 1.1 µM and inactive = higher.

Tests used:
Test in all cases: DTP human tumour cell line panel, 48 h
DLD-1 = system: DLD-1
DMS-114 = system: DMS-114
DMS-273 = system: DMS-273
HOP-92 = system: HOP-92
LOX IMVI = system: LOX IMVI
LXFL 529 = system: LXFL 529
M14 = system: M14
M19-MEL = system: M19-MEL
NCI-H522 = system: NCI-H522
NCI/ADR-RES = system: NCI/ADR-RES
OVCAR-3 = system: OVCAR-3
PC-3 = system: PC-3
SNB-78 = system: SNB-78
XF498 = system: XF498
786-0 = system: 786-0
A549 = system: A549
ACHN = system: ACHN
CCRF-CEM = system: CCRF-CEM
HCT-116 = system: HCT-116
HCT-15 = system: HCT-15
HL-60 = system: HL-60
HOP-18 = system: HOP-18
HT-29 = system: HT-29
IGROV-1 = system: IGROV-1
K562 = system: K562
KM12 = system: KM12
MOLT-4 = system: MOLT-4
Malme-3M = system: Malme-3M
NCI-H226 = system: NCI-H226
NCI-H23 = system: NCI-H23
NCI-H460 = system: NCI-H460
OVCAR-4 = system: OVCAR-4
OVCAR-8 = system: OVCAR-8
RXF 393 = system: RXF 393
SF-268 = system: SF-268
SF-295 = system: SF-295
SF-539 = system: SF-539
SK-MEL-28 = system: SK-MEL-28
SK-MEL-2 = system: SK-MEL-2
SK-MEL-5 = system: SK-MEL-5
SK-OV-3 = system: SK-OV-3
SN12C = system: SN12C
SNB-19 = system: SNB-19
SNB-75 = system: SNB-75
TK-10 = system: TK-10
UACC-257 = system: UACC-257
UACC-62 = system: UACC-62
UO-31 = system: UO-31
A498 = system: A498
COLO 205 = system: COLO 205
EKVX = system: EKVX
HCC 2998 = system: HCC 2998
HOP-62 = system: HOP-62
RPMI-8226 = system: RPMI-8226
SR = system: SR
SW-620 = system: SW-620
U-251 = system: U-251

**Q.** Which GI50 (DLD-1) does the source give for `CCC1(O)CC(OC2CC(N(C)C)C(OC3CC4OC5CC(=O)C(C)OC5OC4C(C)O3)C(C)O2)c2c(cc3c(c2O)C(=O)c2c(O)ccc(O)c2C3=O)C1C(=O)OC` (centres undefined) here?
**A.** 0.00792 µM (active)

**Q.** And the GI50 (DMS-114)?
**A.** 0.00575 µM (active)

**Q.** What about the GI50 (DMS-273) of the same molecule?
**A.** 0.00365 µM (active)

**Q.** What about the GI50 (HOP-92) of the same molecule?
**A.** 0.00624 µM (active)

**Q.** And the GI50 (LOX IMVI)?
**A.** 0.000953 µM (active)

**Q.** And the GI50 (LXFL 529)?
**A.** > 0.01 µM (active)

**Q.** What about the GI50 (M14) of the same molecule?
**A.** > 10 nM (active) and 5.62 nM (active)

**Q.** What about the GI50 (M19-MEL) of the same molecule?
**A.** 0.00887 µM (active)

**Q.** And the GI50 (NCI-H522)?
**A.** 0.00224 µM (active)

**Q.** What about the GI50 (NCI/ADR-RES) of the same molecule?
**A.** 0.00479 µM (active)

**Q.** And the GI50 (OVCAR-3)?
**A.** > 10 nM (active) and 5.92 nM (active)

**Q.** And the GI50 (PC-3)?
**A.** 0.00315 µM (active)

**Q.** And the GI50 (SNB-78)?
**A.** 0.0166 µM (active)

**Q.** What about the GI50 (XF498) of the same molecule?
**A.** 0.00828 µM (active)

**Q.** How did the GI50 (786-0) turn out when `CCOP12(OCC)NC(=O)OC1(C(F)(F)F)c1ccccc1O2` (centres undefined) was run?
**A.** > 100 µM (inactive)

**Q.** And the GI50 (A549)?
**A.** > 100 µM (inactive)

**Q.** And the GI50 (ACHN)?
**A.** > 100 µM (inactive)

**Q.** And the GI50 (CCRF-CEM)?
**A.** > 100 µM (inactive)

**Q.** What about the GI50 (DLD-1) of the same molecule?
**A.** > 100 µM (inactive)

**Q.** And the GI50 (DMS-114)?
**A.** > 100 µM (inactive)

**Q.** And the GI50 (DMS-273)?
**A.** > 100 µM (inactive)

**Q.** And the GI50 (HCT-116)?
**A.** > 100 µM (inactive)

**Q.** And the GI50 (HCT-15)?
**A.** > 100 µM

**Q.** And the GI50 (HL-60)?
**A.** > 100 µM (inactive)

**Q.** What about the GI50 (HOP-18) of the same molecule?
**A.** > 100 µM (inactive)

**Q.** And the GI50 (HT-29)?
**A.** > 100 µM (inactive)

**Q.** And the GI50 (IGROV-1)?
**A.** > 100 µM (inactive)

**Q.** What about the GI50 (K562) of the same molecule?
**A.** > 100 µM (inactive)

**Q.** And the GI50 (KM12)?
**A.** > 100 µM (inactive)

**Q.** What about the GI50 (LOX IMVI) of the same molecule?
**A.** > 100 µM (inactive)

**Q.** What about the GI50 (LXFL 529) of the same molecule?
**A.** > 100 µM (inactive)

**Q.** And the GI50 (M14)?
**A.** > 100 µM (inactive)

**Q.** What about the GI50 (M19-MEL) of the same molecule?
**A.** > 100 µM (inactive)

**Q.** And the GI50 (MOLT-4)?
**A.** > 100 µM (inactive)

**Q.** And the GI50 (Malme-3M)?
**A.** > 100 µM (inactive)

**Q.** What about the GI50 (NCI-H226) of the same molecule?
**A.** > 100 µM (inactive)

**Q.** What about the GI50 (NCI-H23) of the same molecule?
**A.** > 100 µM (inactive)

**Q.** And the GI50 (NCI-H460)?
**A.** > 100 µM (inactive)

**Q.** What about the GI50 (NCI-H522) of the same molecule?
**A.** > 100 µM (inactive)

**Q.** What about the GI50 (OVCAR-3) of the same molecule?
**A.** > 100 µM (inactive)

**Q.** And the GI50 (OVCAR-4)?
**A.** > 100 µM (inactive)

**Q.** What about the GI50 (OVCAR-8) of the same molecule?
**A.** > 100 µM (inactive)

**Q.** And the GI50 (RXF 393)?
**A.** > 100 µM (inactive)

**Q.** What about the GI50 (SF-268) of the same molecule?
**A.** > 100 µM (inactive)

**Q.** What about the GI50 (SF-295) of the same molecule?
**A.** > 100 µM (inactive)

**Q.** And the GI50 (SF-539)?
**A.** > 100 µM (inactive)

**Q.** And the GI50 (SK-MEL-28)?
**A.** > 100 µM (inactive)

**Q.** And the GI50 (SK-MEL-2)?
**A.** > 100 µM (inactive)

**Q.** And the GI50 (SK-MEL-5)?
**A.** > 100 µM (inactive)

**Q.** And the GI50 (SK-OV-3)?
**A.** > 100 µM (inactive)

**Q.** And the GI50 (SN12C)?
**A.** > 100 µM (inactive)

**Q.** And the GI50 (SNB-19)?
**A.** > 100 µM (inactive)

**Q.** And the GI50 (SNB-75)?
**A.** 82.8 µM (inactive)

**Q.** What about the GI50 (SNB-78) of the same molecule?
**A.** > 100 µM (inactive)

**Q.** What about the GI50 (TK-10) of the same molecule?
**A.** > 100 µM (inactive)

**Q.** What about the GI50 (UACC-257) of the same molecule?
**A.** > 100 µM (inactive)

**Q.** And the GI50 (UACC-62)?
**A.** > 100 µM (inactive)

**Q.** What about the GI50 (UO-31) of the same molecule?
**A.** > 100 µM (inactive)

**Q.** `C#CCSc1nc(N)c2ncn(C3OC(CO)C(O)C3O)c2n1` (centres undefined) was tested. Which GI50 (786-0) did it give?
**A.** > 100 µM (inactive)

**Q.** And the GI50 (A498)?
**A.** > 100 µM (inactive)

**Q.** What about the GI50 (A549) of the same molecule?
**A.** > 100 µM (inactive)

**Q.** What about the GI50 (ACHN) of the same molecule?
**A.** > 100 µM (inactive)

**Q.** And the GI50 (CCRF-CEM)?
**A.** > 100 µM (inactive)

**Q.** What about the GI50 (COLO 205) of the same molecule?
**A.** > 100 µM (inactive)

**Q.** What about the GI50 (DLD-1) of the same molecule?
**A.** > 100 µM (inactive)

**Q.** And the GI50 (DMS-114)?
**A.** > 100 µM (inactive)

**Q.** And the GI50 (DMS-273)?
**A.** > 100 µM (inactive)

**Q.** And the GI50 (EKVX)?
**A.** > 100 µM (inactive)

**Q.** And the GI50 (HCC 2998)?
**A.** > 100 µM (inactive)

**Q.** And the GI50 (HCT-116)?
**A.** > 100 µM (inactive)

**Q.** What about the GI50 (HCT-15) of the same molecule?
**A.** > 100 µM

**Q.** And the GI50 (HL-60)?
**A.** > 100 µM (inactive)

**Q.** And the GI50 (HOP-62)?
**A.** > 100 µM (inactive)

**Q.** What about the GI50 (HT-29) of the same molecule?
**A.** > 100 µM (inactive)

**Q.** And the GI50 (IGROV-1)?
**A.** > 100 µM (inactive)

**Q.** What about the GI50 (K562) of the same molecule?
**A.** > 100 µM (inactive)

**Q.** And the GI50 (KM12)?
**A.** > 100 µM (inactive)

**Q.** What about the GI50 (LOX IMVI) of the same molecule?
**A.** > 100 µM (inactive)

**Q.** And the GI50 (LXFL 529)?
**A.** > 100 µM (inactive)

**Q.** What about the GI50 (M19-MEL) of the same molecule?
**A.** > 100 µM (inactive)

**Q.** What about the GI50 (MOLT-4) of the same molecule?
**A.** > 100 µM (inactive)

**Q.** What about the GI50 (Malme-3M) of the same molecule?
**A.** > 100 µM (inactive)

**Q.** And the GI50 (NCI-H23)?
**A.** > 100 µM (inactive)

**Q.** And the GI50 (NCI-H460)?
**A.** > 100 µM (inactive)

**Q.** What about the GI50 (NCI-H522) of the same molecule?
**A.** > 100 µM (inactive)

**Q.** And the GI50 (OVCAR-3)?
**A.** > 100 µM (inactive)

**Q.** And the GI50 (OVCAR-4)?
**A.** > 100 µM (inactive)

**Q.** And the GI50 (OVCAR-8)?
**A.** > 100 µM (inactive)

**Q.** What about the GI50 (RPMI-8226) of the same molecule?
**A.** > 100 µM (inactive)

**Q.** What about the GI50 (RXF 393) of the same molecule?
**A.** > 100 µM (inactive)

**Q.** And the GI50 (SF-268)?
**A.** > 100 µM (inactive)

**Q.** What about the GI50 (SF-295) of the same molecule?
**A.** > 100 µM (inactive)

**Q.** And the GI50 (SK-MEL-28)?
**A.** > 100 µM (inactive)

**Q.** And the GI50 (SK-MEL-5)?
**A.** > 100 µM (inactive)

**Q.** And the GI50 (SN12C)?
**A.** > 100 µM (inactive)

**Q.** And the GI50 (SNB-19)?
**A.** > 100 µM (inactive)

**Q.** And the GI50 (SNB-78)?
**A.** > 100 µM (inactive)

**Q.** What about the GI50 (SR) of the same molecule?
**A.** > 100 µM (inactive)

**Q.** What about the GI50 (SW-620) of the same molecule?
**A.** > 100 µM (inactive)

**Q.** What about the GI50 (TK-10) of the same molecule?
**A.** > 100 µM (inactive)

**Q.** What about the GI50 (U-251) of the same molecule?
**A.** > 100 µM (inactive)

**Q.** What about the GI50 (UACC-257) of the same molecule?
**A.** > 100 µM (inactive)

**Q.** What about the GI50 (UO-31) of the same molecule?
**A.** > 100 µM (inactive)

**Q.** And the GI50 (XF498)?
**A.** > 100 µM (inactive)
